Laboratory results as given in patent US20160158317A1, “Antimicrobial Peptide Variants and Polynucleotides Encoding Same” (Adenium Biotech A/S, priority 2010, published 2016).
Where a SMILES comes first, the peptide text is derived from it. Bridges are numbered along the chain shown (N, C = ends).

Assay: Determination of the protein binding (90% serum, 30 kDa filter, HPLC)
Format: in vitro ADME
Conditions: serum
Experimental: Protein binding assays were performed as follows. The purified peptides were mixed with 90% serum and centrifuged through a 30 kDa filter. The ultra-filtrate and the non filtrated serum samples were quantified by HPLC measurements and the protein binding was subsequently calculated.

With `CC(C)[C@@H]1NC(=O)CNC(=O)[C@H](CC(N)=O)NC(=O)[C@H](CCCNC(=N)N)NC(=O)[C@H](Cc2ccc(O)cc2)NC(=O)[C@H](C(C)C)NC(=O)[C@@H]2CSSC[C@H](NC(=O)[C@H](C(C)C)NC(=O)[C@H](CCCNC(=N)N)NC1=O)C(=O)N[C@@H](Cc1ccc(O)cc1)C(=O)N[C@@H](CCCNC(=N)N)C(=O)N[C@@H](CCCNC(=N)N)C(=O)N[C@H](C(=O)N[C@@H](CC(N)=O)C(=O)O)CSSC[C@H](NC(=O)[C@H](Cc1ccccc1)NC(=O)CN)C(=O)NCC(=O)N[C@@H](Cc1c[nH]cn1)C(=O)N[C@@H](C(C)C)C(=O)N2` [compound 60] (H-GFCGHVCVYRNGVRVCYRRCN-OH; disulfide 3-20, 7-16 (inferred); N-terminus and C-terminus assumed) the fraction unbound was 0.36.

`CC(C)[C@@H]1NC(=O)CNC(=O)[C@H](CC(N)=O)NC(=O)[C@H](CCCNC(=N)N)NC(=O)[C@H](Cc2ccc(O)cc2)NC(=O)[C@H](Cc2c[nH]cn2)NC(=O)[C@@H]2CSSC[C@H](NC(=O)[C@H](C(C)C)NC(=O)[C@H](CCCNC(=N)N)NC1=O)C(=O)N[C@@H](Cc1ccc(O)cc1)C(=O)N[C@@H](CCCNC(=N)N)C(=O)N[C@@H](CCCNC(=N)N)C(=O)N[C@H](C(=O)N[C@@H](CC(N)=O)C(=O)O)CSSC[C@H](NC(=O)[C@H](Cc1ccccc1)NC(=O)CN)C(=O)N[C@@H](Cc1c[nH]c3ccccc13)C(=O)N[C@@H](CCCNC(=N)N)C(=O)N[C@@H](C(C)C)C(=O)N2` [compound 74] (H-GFCWRVCHYRNGVRVCYRRCN-OH; disulfide 3-20, 7-16 (inferred); N-terminus and C-terminus assumed) showed a fraction unbound of 0.01.

`CC(C)[C@@H]1NC(=O)CNC(=O)[C@H](CC(N)=O)NC(=O)[C@H](CCCNC(=N)N)NC(=O)[C@H](Cc2ccc(O)cc2)NC(=O)[C@H](C(C)C)NC(=O)[C@@H]2CSSC[C@H](NC(=O)[C@H](C(C)C)NC(=O)[C@H](CCCNC(=N)N)NC1=O)C(=O)N[C@@H](Cc1ccc(O)cc1)C(=O)N[C@@H](CCCNC(=N)N)C(=O)N[C@@H](CCCNC(=N)N)C(=O)N[C@H](C(=O)N[C@@H](CC(N)=O)C(=O)O)CSSC[C@H](NC(=O)[C@H](C)NC(=O)CN)C(=O)N[C@@H](Cc1c[nH]c3ccccc13)C(=O)N[C@@H](Cc1ccc(O)cc1)C(=O)N[C@@H](C(C)C)C(=O)N2` [compound 3] (H-GACWYVCVYRNGVRVCYRRCN-OH; disulfide 3-20, 7-16 (inferred); N-terminus and C-terminus assumed) gave a fraction unbound of 0.14.

Work on `CC(C)[C@@H]1NC(=O)CNC(=O)[C@H](CC(N)=O)NC(=O)[C@H](CCCNC(=N)N)NC(=O)[C@H](Cc2c[nH]cn2)NC(=O)[C@H](C(C)C)NC(=O)[C@@H]2CSSC[C@H](NC(=O)[C@H](C(C)C)NC(=O)[C@H](CCCNC(=N)N)NC1=O)C(=O)N[C@@H](Cc1c[nH]cn1)C(=O)N[C@@H](CCCNC(=N)N)C(=O)N[C@@H](CCCNC(=N)N)C(=O)N[C@H](C(=O)N[C@@H](CC(N)=O)C(=O)O)CSSC[C@H](NC(=O)[C@H](Cc1ccccc1)NC(=O)CN)C(=O)N[C@@H](Cc1c[nH]c3ccccc13)C(=O)N[C@@H](CC(N)=O)C(=O)N[C@@H](C(C)C)C(=O)N2` [compound 303] (H-GFCWNVCVHRNGVRVCHRRCN-OH; disulfide 3-20, 7-16 (inferred); N-terminus and C-terminus assumed) yielded a fraction unbound of 0.57.

In the case of `CC(C)[C@@H]1NC(=O)[C@H](CCCNC(=N)N)NC(=O)[C@H](CO)NC(=O)CNC(=O)[C@H](CC(N)=O)NC(=O)[C@H](CCCNC(=N)N)NC(=O)[C@H](Cc2ccc(O)cc2)NC(=O)[C@H](C(C)C)NC(=O)[C@@H]2CSSC[C@H](NC1=O)C(=O)N[C@@H](Cc1ccc(O)cc1)C(=O)N[C@@H](CCCNC(=N)N)C(=O)N[C@@H](CCCNC(=N)N)C(=O)N[C@H](C(=O)N[C@@H](CC(N)=O)C(=O)O)CSSC[C@H](NC(=O)[C@H](Cc1ccccc1)NC(=O)CN)C(=O)N[C@@H](Cc1c[nH]c3ccccc13)C(=O)N[C@@H](Cc1ccc(O)cc1)C(=O)N[C@@H](C(C)C)C(=O)N2` [compound 36] (H-GFCWYVCVYRNGSRVCYRRCN-OH; disulfide 3-20, 7-16 (inferred); N-terminus and C-terminus assumed), the fraction unbound is reported as 0.4.

With `CC[C@H](C)[C@@H]1NC(=O)[C@H](CC(N)=O)NC(=O)[C@H](Cc2c[nH]c3ccccc23)NC(=O)[C@@H](NC(=O)[C@H](Cc2ccccc2)NC(=O)CN)CSSC[C@@H](C(=O)N[C@@H](CC(N)=O)C(=O)O)NC(=O)[C@H](CCCNC(=N)N)NC(=O)[C@H](CCCNC(=N)N)NC(=O)[C@H](Cc2c[nH]cn2)NC(=O)[C@@H]2CSSC[C@H](NC1=O)C(=O)N[C@@H](C(C)C)C(=O)N[C@@H](Cc1ccc(O)cc1)C(=O)N[C@@H](CCCNC(=N)N)C(=O)N[C@@H](CC(N)=O)C(=O)NCC(=O)N[C@@H](C(C)C)C(=O)N[C@@H](CCCNC(=N)N)C(=O)N[C@@H](C(C)C)C(=O)N2` [compound 262] (H-GFCWNICVYRNGVRVCHRRCN-OH; disulfide 3-20, 7-16 (inferred); N-terminus and C-terminus assumed) the fraction unbound was 0.12.

In the case of `CC(C)[C@@H]1NC(=O)CNC(=O)[C@H](CC(N)=O)NC(=O)[C@H](CCCNC(=N)N)NC(=O)[C@H](Cc2ccc(O)cc2)NC(=O)[C@H](C(C)C)NC(=O)[C@@H]2CSSC[C@H](NC(=O)[C@H](C(C)C)NC(=O)[C@H](CCCNC(=N)N)NC1=O)C(=O)N[C@@H](Cc1ccc(O)cc1)C(=O)N[C@@H](CCCNC(=N)N)C(=O)N[C@@H](CCCNC(=N)N)C(=O)N[C@H](C(=O)N[C@@H](CC(N)=O)C(=O)O)CSSC[C@H](NC(=O)[C@H](Cc1ccccc1)NC(=O)CN)C(=O)N[C@@H](Cc1c[nH]c3ccccc13)C(=O)N[C@@H](CCCCN)C(=O)N[C@@H](C(C)C)C(=O)N2` [compound 10] (H-GFCWKVCVYRNGVRVCYRRCN-OH; disulfide 3-20, 7-16 (inferred); N-terminus and C-terminus assumed), the fraction unbound is reported as 0.36.

Work on `CC(C)[C@@H]1NC(=O)CNC(=O)[C@H](CC(N)=O)NC(=O)[C@H](CCCCN)NC(=O)[C@H](Cc2ccc(O)cc2)NC(=O)[C@H](C(C)C)NC(=O)[C@@H]2CSSC[C@H](NC(=O)[C@H](C(C)C)NC(=O)[C@H](CCCNC(=N)N)NC1=O)C(=O)N[C@@H](Cc1c[nH]cn1)C(=O)N[C@@H](CCCNC(=N)N)C(=O)N[C@@H](CCCNC(=N)N)C(=O)N[C@H](C(=O)N[C@@H](CC(N)=O)C(=O)O)CSSC[C@H](NC(=O)[C@H](Cc1ccccc1)NC(=O)CN)C(=O)N[C@@H](Cc1c[nH]c3ccccc13)C(=O)N[C@@H](Cc1ccc(O)cc1)C(=O)N[C@@H](C(C)C)C(=O)N2` [compound 89] (H-GFCWYVCVYKNGVRVCHRRCN-OH; disulfide 3-20, 7-16 (inferred); N-terminus and C-terminus assumed) yielded a fraction unbound of 0.1.

In the case of `CC(C)[C@@H]1NC(=O)[C@@H]2CSSC[C@H](NC(=O)[C@H](CO)NC(=O)[C@H](CCCNC(=N)N)NC(=O)[C@H](CCCCN)NC(=O)CNC(=O)[C@H](CC(N)=O)NC(=O)[C@H](CO)NC(=O)[C@H](Cc3ccc(O)cc3)NC1=O)C(=O)N[C@@H](Cc1c[nH]cn1)C(=O)N[C@@H](CCCNC(=N)N)C(=O)N[C@@H](CCCNC(=N)N)C(=O)N[C@H](C(=O)N[C@@H](CC(N)=O)C(=O)O)CSSC[C@H](NC(=O)[C@H](Cc1ccccc1)NC(=O)CN)C(=O)N[C@@H](Cc1c[nH]c3ccccc13)C(=O)N[C@@H](CCCNC(=N)N)C(=O)N[C@@H](C(C)C)C(=O)N2` [compound 509] (H-GFCWRVCVYSNGKRSCHRRCN-OH; disulfide 3-20, 7-16 (inferred); N-terminus and C-terminus assumed), the fraction unbound is reported as 0.13.

For `CC(C)[C@@H]1NC(=O)CNC(=O)[C@H](CC(N)=O)NC(=O)[C@H](CCCNC(=N)N)NC(=O)[C@H](Cc2ccc(O)cc2)NC(=O)[C@H](C(C)C)NC(=O)[C@@H]2CSSC[C@H](NC(=O)[C@H](C(C)C)NC(=O)[C@H](CCCNC(=N)N)NC1=O)C(=O)N[C@@H](Cc1c[nH]cn1)C(=O)N[C@@H](CCCNC(=N)N)C(=O)N[C@@H](CCCNC(=N)N)C(=O)N[C@H](C(=O)N[C@@H](Cc1c[nH]cn1)C(=O)O)CSSC[C@H](NC(=O)[C@H](Cc1ccccc1)NC(=O)CN)C(=O)N[C@@H](Cc1c[nH]c3ccccc13)C(=O)N[C@@H](CC(N)=O)C(=O)N[C@@H](C(C)C)C(=O)N2` [compound 282] (H-GFCWNVCVYRNGVRVCHRRCH-OH; disulfide 3-20, 7-16 (inferred); N-terminus and C-terminus assumed), the fraction unbound was 0.18.

For `CC(C)[C@@H]1NC(=O)CNC(=O)[C@H](CC(N)=O)NC(=O)[C@H](CCCNC(=N)N)NC(=O)[C@H](Cc2ccc(O)cc2)NC(=O)[C@H](C(C)C)NC(=O)[C@@H]2CSSC[C@H](NC(=O)[C@H](C(C)C)NC(=O)[C@H](CCCNC(=N)N)NC1=O)C(=O)N[C@@H](CCCCN)C(=O)N[C@@H](CCCNC(=N)N)C(=O)N[C@@H](CCCNC(=N)N)C(=O)N[C@H](C(=O)N[C@@H](CC(N)=O)C(=O)O)CSSC[C@H](NC(=O)[C@H](Cc1ccccc1)NC(=O)CN)C(=O)N[C@@H](Cc1c[nH]c3ccccc13)C(=O)N[C@@H](Cc1ccc(O)cc1)C(=O)N[C@@H](C(C)C)C(=O)N2` [compound 47] (H-GFCWYVCVYRNGVRVCKRRCN-OH; disulfide 3-20, 7-16 (inferred); N-terminus and C-terminus assumed), the fraction unbound was 0.11.

In the case of `CC(C)[C@@H]1NC(=O)[C@H](CCCNC(=N)N)NC(=O)[C@H](C)NC(=O)CNC(=O)[C@H](CC(N)=O)NC(=O)[C@H](CCCNC(=N)N)NC(=O)[C@H](Cc2ccc(O)cc2)NC(=O)[C@H](C(C)C)NC(=O)[C@@H]2CSSC[C@H](NC1=O)C(=O)N[C@@H](Cc1c[nH]cn1)C(=O)N[C@@H](CCCNC(=N)N)C(=O)N[C@@H](CCCNC(=N)N)C(=O)N[C@H](C(=O)N[C@@H](CC(N)=O)C(=O)O)CSSC[C@H](NC(=O)[C@H](Cc1ccccc1)NC(=O)CN)C(=O)N[C@@H](Cc1c[nH]c3ccccc13)C(=O)N[C@@H](CC(N)=O)C(=O)N[C@@H](C(C)C)C(=O)N2` [compound 235] (H-GFCWNVCVYRNGARVCHRRCN-OH; disulfide 3-20, 7-16 (inferred); N-terminus and C-terminus assumed), the fraction unbound is reported as 0.36.
